Measurements published in patent publication US6939989B2, “Side-chain halogenated amino dicarboxylic acid derivatives as medicaments for treating cardiovascular diseases” (Bayer Aktiengesellschaft, priority 2001, dated 2005).
Each block holds one compound with its values, some of them ahead of it.

Columns and labels:
Heme-containing sGC = molecular target: T1, Heme-containing sGC (Rattus norvegicus, UniProt P20595); test: Stimulation of recombinant soluble guanylate cyclase (sGC) in vitro, heme-containing enzyme; assay type: biochemical; conditions: for Stimulation (n-fold), heme-containing sGC, DEA/NO alone: Ex. 6 0 μM
T1 construct: made in house; host or cells: Sf9 insect cells (baculovirus)
T1 sequence (P20595 1-619): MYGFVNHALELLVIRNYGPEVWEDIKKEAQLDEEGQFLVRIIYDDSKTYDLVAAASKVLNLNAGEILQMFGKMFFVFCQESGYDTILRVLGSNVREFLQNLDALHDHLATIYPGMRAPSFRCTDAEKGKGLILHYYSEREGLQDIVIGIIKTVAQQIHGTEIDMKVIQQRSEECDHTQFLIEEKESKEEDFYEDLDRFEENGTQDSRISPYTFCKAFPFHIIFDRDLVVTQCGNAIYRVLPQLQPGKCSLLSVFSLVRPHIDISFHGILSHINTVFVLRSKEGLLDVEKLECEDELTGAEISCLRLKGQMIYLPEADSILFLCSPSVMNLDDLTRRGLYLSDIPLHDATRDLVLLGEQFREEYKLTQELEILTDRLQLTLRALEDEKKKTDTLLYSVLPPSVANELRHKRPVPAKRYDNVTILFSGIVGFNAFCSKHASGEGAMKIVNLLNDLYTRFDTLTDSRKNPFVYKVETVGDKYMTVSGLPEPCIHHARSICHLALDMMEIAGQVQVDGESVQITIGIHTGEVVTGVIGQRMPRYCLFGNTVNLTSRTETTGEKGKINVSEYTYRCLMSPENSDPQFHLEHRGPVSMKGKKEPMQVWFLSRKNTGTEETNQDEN
T1 sequence (P19686 1-690 partner): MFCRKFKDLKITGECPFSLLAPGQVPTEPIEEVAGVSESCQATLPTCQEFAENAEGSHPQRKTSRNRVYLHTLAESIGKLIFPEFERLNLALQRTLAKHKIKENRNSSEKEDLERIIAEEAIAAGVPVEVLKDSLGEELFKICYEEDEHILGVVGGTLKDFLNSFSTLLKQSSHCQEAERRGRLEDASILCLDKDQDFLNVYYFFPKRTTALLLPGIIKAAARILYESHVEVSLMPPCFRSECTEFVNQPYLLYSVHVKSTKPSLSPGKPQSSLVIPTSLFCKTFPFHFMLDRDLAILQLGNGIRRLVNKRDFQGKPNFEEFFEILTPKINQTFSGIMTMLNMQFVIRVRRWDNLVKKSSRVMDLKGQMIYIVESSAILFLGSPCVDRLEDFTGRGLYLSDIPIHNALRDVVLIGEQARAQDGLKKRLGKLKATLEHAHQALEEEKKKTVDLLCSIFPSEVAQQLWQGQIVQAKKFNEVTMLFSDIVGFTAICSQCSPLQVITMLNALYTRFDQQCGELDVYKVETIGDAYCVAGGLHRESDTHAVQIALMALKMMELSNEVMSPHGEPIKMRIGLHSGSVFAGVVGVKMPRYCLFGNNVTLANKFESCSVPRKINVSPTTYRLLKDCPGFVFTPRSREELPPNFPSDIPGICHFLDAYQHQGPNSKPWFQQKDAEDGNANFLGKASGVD
Description: The investigations of the stimulation of recombinant soluble guanylate cyclase (sGC) […] heme-dependent sGC inhibitor 1H-1,2,4-oxadiazole-(4,3a)-quinoxalin-1-one (ODQ) were carried out according to the method described in detail in the following literature reference: M. Hoenicka, E. M. Becker, H. Apeler, T. Sirichoke, H. Schroeder, R. Gerzer and J.-P. Stasch: Purified soluble guanylyl cyclase expressed in a baculovirus/Sf9 system: stimulation by YC-1, nitric oxide, and carbon oxide. J. Mol. Med. 77 (1999): 14-23.
(§1) Activation of sGC by a test substance is stated as n-fold stimulation of basal activity.

arteria saphena rings = test: Vasorelaxant effect in vitro (phenylephrine-contracted arteria saphena rings); assay type: cell-based, Rabbits; conditions: Oryctolagus cuniculus; rabbit arteria saphena rings, phenylephrine contraction
Description: Rabbits are anesthetized or killed by intravenous injection of thiopental sodium (about 50 mg/kg) and exsanguinated. The arteria saphena is removed and divided into rings 3 mm wide. The individual rings are in each case mounted on a pair of hooks of triangular shape, open at the ends and made of special wire (Remanium®) having a diameter of 0.3 mm. Under pretension, each ring is introduced into a 5 ml organ bath containing carbogen-gassed Krebs-Henseleit solution at 37° C. with the following composition (mM): NaCl: 119; KCl: 4.8; CaCl2×2H2O: 1; MgSO4×7H2O: 1.4; KH2PO4: 1.2; NaHCO3: 25; glucose: 10; bovine serum albumin: 0.001%. The force of contraction is detected with Statham UC2 cells, amplified and digitized via A/D converters (DAS-1802 HC, Keithley Instruments, Munich) and recorded in parallel on chart recorders. Contractions are generated by adding phenylephrine.
After several (generally 4) control cycles, the substance to be investigated is added in each further run in increasing dosage, and the height of the contraction reached under the influence of the test substance is compared with the height of the contraction reached in the last preceding run. The concentration necessary to reduce the height of the control value by 50% (IC50) is calculated from this. The standard application volume is 5 μl. The DMSO content in the bath solution corresponds to 0. 1%.

[1] = tested on: porcine serum-induced rat liver fibrosis; test: Antifibrotic action in vivo, porcine serum-induced rat liver fibrosis; parameters: species or system Female Sprague Dawley rats; conditions: seven weeks
Source text: The antifibrotic action of the substances was investigated using the model of the porcine serum-induced rat liver fibrosis. Treatment with heterologous serum, for example porcine serum in rats, is a method frequently used in the literature for inducing fibrosis of the liver with subsequent cirrhosis which, in contrast to other models, causes only minimal damage and inflammation of the parenchyma cells of the liver (Bhunchet, E. and Wake, K. (1992): Role of mesenchymal cell populations in porcine serum-induced rat liver fibrosis. Hepatology 16: 1452-1473). […] After seven weeks of treatment, the animals were killed and the livers were removed in order to quantify the collagen content. […]
Fast Green was used as counterstain to enhance contrasts. In each section, the extent of liver fibrosis was determined as a percentage of the area stained by Pikrosirius Red of the total area measured. […] 64 fields of a standardized grid of 31 mm^2 were measured using a final amplification of 100. […]
To determine OH-proline according to Prockop and Udenfried (Prockop, D. J. and Udenfried, S. A. (1960): A specific method for the analysis of hydroxyproline in tissues and urine. Anal. Biochem. 1: 228-239), in each case 50-100 mg of liver tissue were dried and boiled with 6N HCl for about 17 hours. […] After 3 hours of incubation at 35° C., absorption at 573 nm was measured. […]

Heme-free sGC = molecular target: T2, Heme-free sGC (Rattus norvegicus, UniProt P20595); test: Stimulation of recombinant soluble guanylate cyclase (sGC) in vitro, heme-free enzyme; assay type: biochemical
T2 construct: made in house; host or cells: Sf9 insect cells (baculovirus)
T2 sequence (P20595 1-619): T1 sequence (P20595 1-619)
T2 sequence (P19686 1-690 partner): T1 sequence (P19686 1-690 partner)
Description: The investigations of the stimulation of recombinant soluble guanylate cyclase (sGC) and the compounds according to the invention with and without sodium nitroprusside and with and without the heme-dependent sGC inhibitor 1H-1,2,4-oxadiazole-(4,3a)-quinoxalin-1-one (ODQ) were carried out according to the method described in detail in the following literature reference: M. Hoenicka, E. M. Becker, H. Apeler, T. Sirichoke, H. Schroeder, R. Gerzer and J.-P. Stasch: Purified soluble guanylyl cyclase expressed in a baculovirus/Sf9 system: stimulation by YC-1, nitric oxide, and carbon oxide. J. Mol. Med. 77 (1999): 14-23.
The heme-free guanylate cyclase was obtained by adding Tween 20 to the sample buffer (final concentration 0.5%).
as §1

Structure (SMILES): CCN(CC)[N+]([O-])=NO [DEA/NO, 2-(N,N-diethylamino)diazenolate 2-oxide, reference compound]
Stimulation (n-fold), heme-containing sGC, DEA/NO alone (Heme-containing sGC; DEA/NO 0.001 μM): 5 n-fold
Stimulation (n-fold), heme-containing sGC, DEA/NO alone (Heme-containing sGC; DEA/NO 0.01 μM): 30 n-fold
Stimulation (n-fold), heme-containing sGC, DEA/NO alone (Heme-containing sGC; DEA/NO 0.1 μM): 124 n-fold

IC50 (arteria saphena rings): 0.15 nM
Structure (SMILES): CC(C)(C)c1ccc(-c2ccc(COc3ccccc3CCN(CCCCC(=O)O)Cc3ccc(C(=O)O)cc3)c(F)c2)cc1 [Example 2]

IC50 (arteria saphena rings): 0.17 nM
Stimulation (n-fold), heme-containing sGC, basal (Heme-containing sGC; Ex. 6 0.001 μM): 2 n-fold
Stimulation (n-fold), heme-containing sGC, + DEA/NO (0.001 μM) (Heme-containing sGC; Ex. 6 0.001 μM + DEA/NO 0.001 μM): 6 n-fold
Stimulation (n-fold), heme-containing sGC, + DEA/NO (0.01 μM) (Heme-containing sGC; Ex. 6 0.001 μM + DEA/NO 0.01 μM): 32 n-fold
Stimulation (n-fold), heme-containing sGC, + DEA/NO (0.1 μM) (Heme-containing sGC; Ex. 6 0.001 μM + DEA/NO 0.1 μM): 127 n-fold
Stimulation (n-fold), heme-containing sGC, + ODQ (10 μM) (Heme-containing sGC; Ex. 6 0.001 μM + ODQ 10 μM): 35 n-fold
Stimulation (n-fold), heme-containing sGC, basal (Heme-containing sGC; Ex. 6 0.01 μM): 9 n-fold
Stimulation (n-fold), heme-containing sGC, + DEA/NO (0.001 μM) (Heme-containing sGC; Ex. 6 0.01 μM + DEA/NO 0.001 μM): 13 n-fold
Stimulation (n-fold), heme-containing sGC, + DEA/NO (0.01 μM) (Heme-containing sGC; Ex. 6 0.01 μM + DEA/NO 0.01 μM): 39 n-fold
Stimulation (n-fold), heme-containing sGC, + DEA/NO (0.1 μM) (Heme-containing sGC; Ex. 6 0.01 μM + DEA/NO 0.1 μM): 134 n-fold
Stimulation (n-fold), heme-containing sGC, + ODQ (10 μM) (Heme-containing sGC; Ex. 6 0.01 μM + ODQ 10 μM): 95 n-fold
Stimulation (n-fold), heme-containing sGC, basal (Heme-containing sGC; Ex. 6 0.1 μM): 18 n-fold
Stimulation (n-fold), heme-containing sGC, + DEA/NO (0.001 μM) (Heme-containing sGC; Ex. 6 0.1 μM + DEA/NO 0.001 μM): 25 n-fold
Stimulation (n-fold), heme-containing sGC, + DEA/NO (0.01 μM) (Heme-containing sGC; Ex. 6 0.1 μM + DEA/NO 0.01 μM): 52 n-fold
Stimulation (n-fold), heme-containing sGC, + DEA/NO (0.1 μM) (Heme-containing sGC; Ex. 6 0.1 μM + DEA/NO 0.1 μM): 157 n-fold
Stimulation (n-fold), heme-containing sGC, + ODQ (10 μM) (Heme-containing sGC; Ex. 6 0.1 μM + ODQ 10 μM): 147 n-fold
Stimulation (n-fold), heme-containing sGC, basal (Heme-containing sGC; Ex. 6 1.0 μM): 23 n-fold
Stimulation (n-fold), heme-containing sGC, + DEA/NO (0.001 μM) (Heme-containing sGC; Ex. 6 1.0 μM + DEA/NO 0.001 μM): 30 n-fold
Stimulation (n-fold), heme-containing sGC, + DEA/NO (0.01 μM) (Heme-containing sGC; Ex. 6 1.0 μM + DEA/NO 0.01 μM): 53 n-fold
Stimulation (n-fold), heme-containing sGC, + DEA/NO (0.1 μM) (Heme-containing sGC; Ex. 6 1.0 μM + DEA/NO 0.1 μM): 151 n-fold
Stimulation (n-fold), heme-containing sGC, + ODQ (10 μM) (Heme-containing sGC; Ex. 6 1.0 μM + ODQ 10 μM): 150 n-fold
Stimulation (n-fold), heme-containing sGC, basal (Heme-containing sGC; Ex. 6 10 μM): 25 n-fold
Stimulation (n-fold), heme-containing sGC, + DEA/NO (0.001 μM) (Heme-containing sGC; Ex. 6 10 μM + DEA/NO 0.001 μM): 30 n-fold
Stimulation (n-fold), heme-containing sGC, + DEA/NO (0.01 μM) (Heme-containing sGC; Ex. 6 10 μM + DEA/NO 0.01 μM): 67 n-fold
Stimulation (n-fold), heme-containing sGC, + DEA/NO (0.1 μM) (Heme-containing sGC; Ex. 6 10 μM + DEA/NO 0.1 μM): 174 n-fold
Stimulation (n-fold), heme-containing sGC, + ODQ (10 μM) (Heme-containing sGC; Ex. 6 10 μM + ODQ 10 μM): 159 n-fold
Stimulation (n-fold), heme-free sGC, basal (Heme-free sGC; Ex. 6 0.001 μM): 10 n-fold
Stimulation (n-fold), heme-free sGC, + ODQ (10 μM) (Heme-free sGC; Ex. 6 0.001 μM + ODQ 10 μM): 25 n-fold
Stimulation (n-fold), heme-free sGC, basal (Heme-free sGC; Ex. 6 0.01 μM): 55 n-fold
Stimulation (n-fold), heme-free sGC, + ODQ (10 μM) (Heme-free sGC; Ex. 6 0.01 μM + ODQ 10 μM): 61 n-fold
Stimulation (n-fold), heme-free sGC, basal (Heme-free sGC; Ex. 6 0.1 μM): 81 n-fold
Stimulation (n-fold), heme-free sGC, + ODQ (10 μM) (Heme-free sGC; Ex. 6 0.1 μM + ODQ 10 μM): 79 n-fold
Stimulation (n-fold), heme-free sGC, basal (Heme-free sGC; Ex. 6 1.0 μM): 83 n-fold
Stimulation (n-fold), heme-free sGC, + ODQ (10 μM) (Heme-free sGC; Ex. 6 1.0 μM + ODQ 10 μM): 83 n-fold
Stimulation (n-fold), heme-free sGC, basal (Heme-free sGC; Ex. 6 10 μM): 84 n-fold
Stimulation (n-fold), heme-free sGC, + ODQ (10 μM) (Heme-free sGC; Ex. 6 10 μM + ODQ 10 μM): 83 n-fold
Structure (SMILES): O=C(O)CCCCN(CCc1ccccc1OCc1ccc(-c2ccc(C(F)(F)F)cc2)cc1Cl)Cc1ccc(C(=O)O)cc1 [Example 6]
Reduction of collagen deposits in the liver (OH-proline, morphometric fibrosis measurement) ([1]; 0.03 mg/kg p.o. o.d.): about a half
Reduction of collagen deposits in the liver (OH-proline, morphometric fibrosis measurement) ([1]; 0.1 mg/kg p.o. o.d.): about a half

IC50 (arteria saphena rings): 1.8 nM
Structure (SMILES): O=C(O)CCCCN(CCc1ccccc1OCc1ccc(C2=CCCCC2)cc1Cl)Cc1ccc(C(=O)O)cc1 [Example 9]

IC50 (arteria saphena rings): 2 nM
Structure (SMILES): O=C(O)CCCCN(CCc1ccccc1OCc1ccc(C2CCCCC2)cc1Cl)Cc1ccc(C(=O)O)cc1 [Example 12]
